Results taken from patent US7348453B2, “Labile linkage for compound delivery to a cell” (Mirus Bio Corporation, priority 2003, dated 2008).

Assays:
[1] = Measurement of acetal hydrolysis kinetics (absorbance vs time in buffered solutions); type: physicochemical; conditions: formaldehyde-derived vs acetaldehyde-derived acetal
Text: To illustrate the rate of cleavage of several example ortho carboxy phenol derived acetals, we synthesized the molecules 1-3 (shown in FIG. 2) and measured the rates of acetal hydrolysis for each at pH 5.2-7.3. • Acetal 1. R′, R=alkyl; and R1, R2, R3, R4=hydrogen • Acetal 2. R′, R=alkyl; R1, R4=hydrogen; R2=carboxyl (carbon-containing group); R3=hydroxyl (heteroatom) • Acetal 3. R′=alkyl; R, R2, R3, R4=hydrogen; and R1=carboxyl (carbon-containing group)
To determine the rate of acetal hydrolysis, compounds 1-3 were added to buffered solutions (pH 7-8 with 5 mM HEPES, or pH 5-7 with 5 mM acetate) at various pH values and the absorbance of the solution was measured as a function of time (λ=302 nm for 1 and 2 and 310 nm for 3). The rate constant was determined by determining the slope of the line derived from plotting ln[1−((A∞−At)/(A28−Ao))] as a function of time t, where A28 is absorbance after >3 hours of hydrolysis, At is the absorbance at time t, and Ao is the initial absorbance. The half-life of the hydrolysis equals ln[2] divided by the rate constant.

[2] = system: Hepa mouse hepatoma cells; assay: DNA transfection, luciferase expression (pCIluc/DW921 complexes with crosslinker); type: cell-based; conditions: pCIluc 10 μg/mL, DW921 100 μg/mL, 48 h, average of two wells
Protocol: To a solution of plasmid DNA pCIluc (10 μg/mL, 0.075 mM in phosphate, 2.6 μg/μL pCIluc; prepared according to Danko et al. 1997) in 0.5 mL of 150 mM NaCl and 5 mM TAPS pH 9 was added 100 μg/mL DW921. The complexes were then reacted with glutaraldehyde, periodate oxidized phenyl glucoside (another crosslinker containing a labile bond), or periodate oxidized salicylic galactoside at 1, 2, 4, 8, or 16 μg/mL. The complexes were then added (200 μL) to wells containing Hepa mouse hepatoma cells in Dulbecco's modified Eagle's Media containing 10% fetal bovine serum. The cells were allowed to incubate for 48 h. The cells were then harvested and assayed for luciferase expression as previously reported. The amount of transfection was reported in relative light units and is the average transfection for two separate wells of cells.

## CC(C)[C@@H]1CC[C@@H](C)C[C@H]1OCOc1c(C(=O)O)cccc1C(=O)O [Acetal 3]
[1]
  rate of acetal hydrolysis relative to acetals derived from alkyl-substituted aldehydes (acetals 1 and 2): hydrolyze more slowly

## O=CCCCC=O [glutaraldehyde]
[2]; 2 μg/mL dialdehyde crosslinker
  Relative Light Units (luciferase expression): 620 Relative Light Units
[2]; 4 μg/mL dialdehyde crosslinker
  Relative Light Units (luciferase expression): 1,400 Relative Light Units
[2]; 8 μg/mL dialdehyde crosslinker
  Relative Light Units (luciferase expression): 590 Relative Light Units
